US8338475B2, “Anti-proliferative pharmaceutical composition” (BioCis Pharma Oy, priority 2003, dated 2012)
Where “and” joins values, the source holds several entries; their conditions need not be identical. Identical values can stand only once.

Assays:
[1] = test system: A2058 tumours; assay: Haematoxylin/eosin staining of tumour sections (necrosis); type: in vivo, SCID/SCID mice; conditions: tumours collected after 16 days; 30 mM cis-UCA, 1 μM CPT intratumoural
Description: (§1) After 16 days from the first injection, all the animals were sacrificed with CO2, and the tumours were collected and fixed in formalin for further studies. In groups A, C, and D, one mouse was sacrificed before the end of the experiment because of poor development of the tumour (no measurable tumour at day 0). One animal in group B was sacrificed prematurely after it had severly scratched the tumour. Data from these animals were not included in the calculation of the tumour size results. All the removed animals were female mice. Immunohistochemical data was obtained also from the removed mice except from group B. The experiments were conducted under a protocol approved by the local ethics committee.
(§2) Paraffin sections of the tumours were stained with haematoxylin/eosin following standard procedures for an overall picture. Ki67 was stained to detect the amount of proliferating cells. The staining procedure for the Ki67 primary antibody (Dako, Klostrup, Denmark) at 1:50 dilution and secondary antibody (StreptABComplex/HRP Duet Mouse/Rabbit, Dako) at 1:100 dilution followed the instructions provided by the manufacturer. Two sections from each tumour was examined.

[2] = test system: A2058 (cutaneous melanoma); assay: Proliferation assay (CellTiter 96), A2058 cells; type: cell-based, human; conditions: Homo sapiens, pH 6.5, 44 h, cis-UCA 10 mM, CPT 2 μM, 15,000 cells per 100 μl, read-out: Inhibition of proliferation (mean percentage inhibition ± SD compared with untreated control)
Method: (§3) The cells were cultured in triplicate with or without 2 μM camptothecin (CPT) or 10 mM cis-UCA in a density of 15,000 cells per […]. A, Cells taken from normal pH 7.4 cultures to test conditions at pH 6.5. B, Cells cultured in low pH 6.7 adaptation medium for 3 d, then tested at pH 6.5. C, Cells cultured and tested at pH 7.4.
Proliferation was measured in a 44-h assay at pH 6.5 with 30 μM to 30 mM cis-UCA and 2 μM camptothecin. Both proliferation (A) and calculated percentage inhibition data (B) are presented.
(§4) Transformed tumour cell lines WM 266-4 and A2058 (cutaneous melanoma), HT-1080 (epithelial fibrosarcoma), HeLa (epithelial adenocarcinoma of cervix), HK293 (kidney epithelial cells) and non-transformed cell line HSF (skin fibroblast from a healthy volunteer donor) of human origin have been described earlier (Li et al. 2003). The K562 (chronic myelogenous leukemia) cells were purchased from American Type Culture Collection.
(§5) The cells were maintained in logarithmic growth phase in IMDM medium (Invitrogen, Paisley, UK) supplemented with 10% fetal calf serum and antibiotics in a humidified incubator at +37° C., 5% CO2. The adherent cells lines were harvested for experiments with 0.25% trypsin-EDTA in PBS for 5 min and then resuspended and washed in medium. After counting of viable cells, 15,000 to 75,000 cells were transferred into flat-bottom 96-well cell culture plates in a volume of 100 or 150 μl.
(§6) The proliferation activity of cultured cell lines was quantified in flat-bottom 96-well plates with a modified colorimetric assay based on a tetrazolium derivative (CellTiter 96 Aqueous One Solution Cell Proliferation Assay, Promega). The cells were cultured in the presence of camptothecin and/or cis-UCA for 20 to 92 h, then the proliferation reagent was added for 2 h, and the absorbance at 490 nm was measured in a plate reader. Blank absorption values in wells containing medium without cells were subtracted before comparison analysis.
(§7) The cell lines were tested in a 44-h culture at pH 6.5 with or without 2 μM camptothecin and 10 mM cis-UCA at 15,000 cells per 100 μl total volume. […] In order to further characterise the effective anti-proliferative concentration range of cis-UCA, proliferation was measured in a 44-h assay at pH 6.5 with cis-UCA concentration ranging from 30 μM to 30 mM.

[3] = test system: WM 266-4 (cutaneous melanoma); assay: Proliferation assay (CellTiter 96), WM266-4 cells; type: cell-based, human; conditions: Homo sapiens, WM 266-4, pH 6.5, 44 h, cis-UCA 10 mM, CPT 2 μM, 15,000 cells per 100 μl, read-out: Inhibition of proliferation (mean percentage inhibition ± SD compared with untreated control)
Method: as §3, §4, §5, §6, §7

[4] = test system: K562 (chronic myelogenous leukemia); assay: Proliferation assay (CellTiter 96), K562 cells; type: cell-based, human; conditions: Homo sapiens, pH 6.5, 44 h, cis-UCA 10 mM, CPT 2 μM, 15,000 cells per 100 μl, read-out: Inhibition of proliferation (mean percentage inhibition ± SD compared with untreated control)
Description: as §4, §5
as §6, with “Blank absorption values in wells containing medium without cells were subtracted before comparison analysis.” left out

[5] = test system: HK293 (kidney epithelial cells); assay: Proliferation assay (CellTiter 96), HK293 cells; type: cell-based, human; conditions: Homo sapiens, Epithelial cell, pH 6.5, 44 h, cis-UCA 10 mM, CPT 2 μM, 15,000 cells per 100 μl, read-out: Inhibition of proliferation (mean percentage inhibition ± SD compared with untreated control)
Description: as §4, §5
as §6, with “Blank absorption values in wells containing medium without cells were subtracted before comparison analysis.” left out

[6] = test system: Ki67 (proliferating cells) in A2058 tumours; assay: Immunohistochemistry of tumours, Ki67 staining; type: in vivo, SCID/SCID mice; conditions: tumours collected after 16 days; 30 mM cis-UCA, 1 μM CPT intratumoural
Description: as §1, §2

[7] = test system: HeLa (epithelial adenocarcinoma of cervix); assay: Proliferation assay (CellTiter 96), HeLa cells; type: cell-based, human; conditions: Homo sapiens, pH 6.5, 44 h, cis-UCA 10 mM, CPT 2 μM, 15,000 cells per 100 μl, read-out: Inhibition of proliferation (mean percentage inhibition ± SD compared with untreated control)
Description: as §4, §5
as §6, with “Blank absorption values in wells containing medium without cells were subtracted before comparison analysis.” left out

[8] = test system: HSF (skin fibroblast); assay: Proliferation assay (CellTiter 96), HSF cells; type: cell-based, human; conditions: Homo sapiens, Skin fibroblast, pH 6.5, 44 h, cis-UCA 10 mM, CPT 2 μM, 15,000 cells per 100 μl, read-out: Inhibition of proliferation (mean percentage inhibition ± SD compared with untreated control)
Description: as §4, §5
as §6, with “Blank absorption values in wells containing medium without cells were subtracted before comparison analysis.” left out

[9] = test system: A2058 human cutaneous melanoma tumours; assay: Tumour growth in SCID/SCID mice in vivo; conditions: 16-day treatment, 1 μM CPT, pH 6.5
Method: All injection solutions were adjusted to pH 6.5. The data points have been normalised to unity tumour size at day 0. Data from five mice in each group is included (mean, SD).
The A2058 human cutaneous melanoma cells were cultured under normal cell culture conditions prior to injection into mice. Two million A2058 cells were injected s.c. into the neck of SCID/SCID mice (Charles River Laboratories, Germany). Tumours were allowed to develop for two weeks to the size of a small pearl before the treatments. The mice were divided into four groups of six animals, each containing three males and three females. Each tumour was first injected 50 μl of one of the test solutions (A: PBS; B: 30 mM cis-UCA; C: 1 μM CPT; D: 30 mM cis-UCA+1 μM CPT) three times a week (Mon-Wed-Fri). After day 7 from the beginning of injections, the injection volume was increased to 150 μl injected into three different sides of the tumour. Tumour length and width were measured with a caliper three times a week before each injection. Tumour planar area was calculated as length×width. The tumour growth inhibition efficiency I of the treatments was calculated according to Equation 1:
[formula] where Sr represents the normalised relative size of the tumour in the control group (A) or any of the treatment groups (T), and d0 to d16 are the (eight) measuring time points during the 16-day treatment period.
as §1

[10] = test system: cell lines; assay: Proliferation assay, statements on the cell lines as a group; type: cell-based, human; conditions: camptothecin 2 μM; 44 h; pH 6.5 or 7.4 (FIG. 1)
Method: The cells were cultured for 44 h with or without 2 μM camptothecin (CPT) at pH 6.5 or 7.4 conditions. After a 2-h incubation with the proliferation assay reagent, the absorbance at 490 nm was recorded. Cells were cultured in a density of 15,000 cells (K562, HT-1080, HK293) or 75,000 cells (the other cells) in a volume of 150 μl.
Three cell lines were cultured with cis-UCA and/or 1 μM camptothecin at a density of […] per well (100 μl) for 44 h in pH 6.5 medium. Blank wells with all the cis-UCA concentrations but without cells were included and their absorbance subtracted from those of the corresponding test wells.
as §4, with “The K562 (chronic myelogenous leukemia) cells were purchased from American Type Culture Collection.” left out
as §6, with “Blank absorption values in wells containing medium without cells were subtracted before comparison analysis.” left out

[11] = test system: HT-1080 (epithelial fibrosarcoma); assay: Proliferation assay (CellTiter 96), HT-1080 cells; type: cell-based, human; conditions: Homo sapiens, pH 6.5, 44 h, cis-UCA 10 mM, CPT 2 μM, 15,000 cells per 100 μl, read-out: Inhibition of proliferation (mean percentage inhibition ± SD compared with untreated control)
Description: as §4, §5
as §6, with “Blank absorption values in wells containing medium without cells were subtracted before comparison analysis.” left out

[12] = test system: human polymorphonuclear neutrophils; conditions: extracellular pH range 6.1 to 7.0; patent application US2006035973; cited from earlier work

SMILES | Necrosis (histological sections with haematoxylin/eosin staining) [1] | inhibition at 2 µM [2] | inhibition at 2 µM [3] | inhibition at 2 µM [4] | inhibition at 2 µM [5] | Ki67+ (number of positive tumours/total analysed) [6] | inhibition at 2 µM [7] | inhibition at 2 µM [8] | mean tumour area relative to the initial size at day 0 ([9]; intratumoural injection three times a week, 30 mM cis-UCA) | Growth suppression, female ([9]; female mice, intratumoural 30 mM cis-UCA) | Growth suppression, male ([9]; male mice, intratumoural 30 mM cis-UCA) | anti-proliferative effect in all cell line cultures [10] | inhibition at 2 µM [11] | effect on the intracellular pH of neutrophils [12]
CC[C@@]1(O)C(=O)OCc2c1cc1n(c2=O)Cc2cc3ccccc3nc2-1 [CPT, Camptothecin, reference compound] | Dead cells and large necrotic areas were detected and yes | 84 ± 3.3% | 81 ± 1.1% | 77 ± 3.3% | 56 ± 1% | three out of six tumours and 3/6 | 78 ± 1.6% | 37 ± 0.4% | about four | 90.3% | 44.7% | inhibited the proliferation in all cell line cultures and showed more efficient inhibition at pH 6.5 | 71 ± 1.7% | 
O=C(O)C=Cc1c[nH]cn1 [trans-UCA, 3-(1H-imidazol-4-yl)-2-propenoic acid, reference compound] |  |  |  |  |  |  |  |  |  |  |  |  |  | not trans-UCA affected the intracellular pH
